Patent US20250250230A1, “HETEROCYCLIC COMPOUND” (TAKEDA PHARMACEUTICAL COMPANY LIMITED, priority 2022, published 2025)

biological target: T1, human orexin type 2 receptor (Homo sapiens, UniProt O43614); assay: Measurement of orexin type 2 receptor agonist activity (calcium fluorescence, Fluo-4 AM, FDSS); format: cell-based; conditions: test compound 3 μM; CHO cells expressing human OX2 receptor; DMSO = 0%, orexin A (human) = 100%
T1 construct: expressed in transfected cells
T1 sequence (O43614 1-444): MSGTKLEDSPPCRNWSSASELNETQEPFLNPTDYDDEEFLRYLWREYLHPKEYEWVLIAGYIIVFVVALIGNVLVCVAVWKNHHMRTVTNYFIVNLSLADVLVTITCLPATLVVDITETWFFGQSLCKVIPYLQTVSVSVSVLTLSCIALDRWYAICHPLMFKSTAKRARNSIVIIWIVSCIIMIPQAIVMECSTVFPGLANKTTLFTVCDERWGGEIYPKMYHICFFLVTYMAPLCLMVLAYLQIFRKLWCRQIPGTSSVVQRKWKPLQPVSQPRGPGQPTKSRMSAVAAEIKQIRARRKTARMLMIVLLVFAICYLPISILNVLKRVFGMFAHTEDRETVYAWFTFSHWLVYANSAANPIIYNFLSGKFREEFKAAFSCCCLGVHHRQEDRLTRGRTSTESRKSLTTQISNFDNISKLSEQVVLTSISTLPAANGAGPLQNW
Method in brief: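 CHO-K1 cells stably expressing human OX2R were loaded with Fluo-4 AM (30 min 37 °C, 30 min RT) in HEPES-buffered HBSS with 0.1% BSA and probenecid. Calcium fluorescence was followed on FDSS for 2 min after compound addition; activity normalised to DMSO (0%) and 10 nM orexin A (100%).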

Which “OX2R agonist activity (3 μM, %)” value does the source give for `CCS(=O)(=O)NC[C@H]1[C@@H](F)CN1C(=O)[C@@H]1C[C@@]1(F)c1ccccc1-c1c(F)cccc1F` [Example 426, N-({(2S,3S)-1-[(1S,2S)-2-(2′,6′-difluoro[1,1′-biphenyl]-2-yl)-2-fluorocyclopropane-1-carbonyl]-3-fluoroazetidin-2-yl}methyl)ethanesulfonamide] here?
The value was 104%.

With `CCNS(=O)(=O)NC[C@@H]1[C@H](F)CN1C(=O)[C@@H]1C[C@@]1(F)c1ccc(F)cc1-c1c(F)cccc1F` [Example 427, N-ethyl-N′-({(2R,3R)-3-fluoro-1-[(1S,2S)-2-fluoro-2-(2′,5,6′-trifluoro[1,1′-biphenyl]-2-yl)cyclopropane-1-carbonyl]azetidin-2-yl}methyl)sulfuric diamide] as the compound, how does the “OX2R agonist activity (3 μM, %)” value read?
The value was 96%.

With `CS(=O)(=O)NC[C@@H]1[C@H](F)CN1C(=O)C1(CC#N)CC1c1ccccc1-c1c(F)cccc1F` (stereo partly drawn) [Example 428, N-({(2R,3R)-1-[(1R,2R)-1-(cyanomethyl)-2-(2′,6′-difluoro[1,1′-biphenyl]-2-yl)cyclopropane-1-carbonyl]-3-fluoroazetidin-2-yl}methyl)methanesulfonamide, or N-({(2R,3R)-1-[(1S,2S)-1-(cyanomethyl)-2-(2′,6′-difluoro[1,1′-biphenyl]-2-yl)cyclopropane-1-carbonyl]-3-fluoroazetidin-2-yl}methyl)methanesulfonamide] as the compound, how does the “OX2R agonist activity (3 μM, %)” value read?
Its value is 53%.

`O=C([C@@H]1C[C@@]1(F)c1ccc(F)cc1-c1c(F)cccc1F)N1C[C@@H](F)[C@H]1CNS(=O)(=O)C1CC1` [Example 429, N-({(2R,3R)-3-fluoro-1-[(1S,2S)-2-fluoro-2-(2′,5,6′-trifluoro[1,1′-biphenyl]-2-yl)cyclopropane-1-carbonyl]azetidin-2-yl}methyl)cyclopropanesulfonamide] was tested. Which “OX2R agonist activity (3 μM, %)” value did it give?
The value was 99%.

For `O=C([C@@H]1C[C@@]1(F)c1ccc(F)cc1-c1c(F)cccc1F)N1C[C@@H](F)[C@H]1CNS(=O)(=O)CF` [Example 430, 1-fluoro-N-({(2R,3R)-3-fluoro-1-[(1S,2S)-2-fluoro-2-(2′,5,6′-trifluoro[1,1′-biphenyl]-2-yl)cyclopropane-1-carbonyl]azetidin-2-yl}methyl)methanesulfonamide], which “OX2R agonist activity (3 μM, %)” value is on record?
The value was 92%.

For `O=C([C@@H]1C[C@@]1(F)c1ccc(F)cc1-c1c(F)cccc1F)N1C[C@@H](F)[C@H]1CNS(=O)(=O)CBr` [Example 431, 1-bromo-N-({(2R,3R)-3-fluoro-1-[(1S,2S)-2-fluoro-2-(2′,5,6′-trifluoro[1,1′-biphenyl]-2-yl)cyclopropane-1-carbonyl]azetidin-2-yl}methyl)methanesulfonamide], which “OX2R agonist activity (3 μM, %)” value is on record?
Its value is 95%.

`CCCS(=O)(=O)NC[C@@H]1[C@H](F)CN1C(=O)[C@@H]1C[C@@]1(F)c1ccc(F)cc1-c1c(F)cccc1F` [Example 433, N-({(2R,3R)-3-fluoro-1-[(1S,2S)-2-fluoro-2-(2′,5,6′-trifluoro[1,1′-biphenyl]-2-yl)cyclopropane-1-carbonyl]azetidin-2-yl}methyl)propane-1-sulfonamide] was tested. Which “OX2R agonist activity (3 μM, %)” value did it give?
The value was 95%.

For `CS(=O)(=O)NC[C@@H]1CCN1C(=O)C1(CO)CC1c1ccc(F)cc1-c1c(F)cccc1F` (stereo partly drawn) [Example 434, N-({(2S)-1-[(1R,2S)-1-(hydroxymethyl)-2-(2′,5,6′-trifluoro[1,1′-biphenyl]-2-yl)cyclopropane-1-carbonyl]azetidin-2-yl}methyl)methanesulfonamide, or N-({(2S)-1-[(1S,2R)-1-(hydroxymethyl)-2-(2′,5,6′-trifluoro[1,1′-biphenyl]-2-yl)cyclopropane-1-carbonyl]azetidin-2-yl}methyl)methanesulfonamide], which “OX2R agonist activity (3 μM, %)” value is on record?
Its value is 96%.

`COCC1(C(=O)N2CC[C@H]2CNS(C)(=O)=O)CC1c1ccc(F)cc1-c1c(F)cccc1F` (stereo partly drawn) [Example 435, N-({(2S)-1-[(1R,2S)-1-(methoxymethyl)-2-(2′,5,6′-trifluoro[1,1′-biphenyl]-2-yl)cyclopropane-1-carbonyl]azetidin-2-yl}methyl)methanesulfonamide, or N-({(2S)-1-[(1S,2R)-1-(methoxymethyl)-2-(2′,5,6′-trifluoro[1,1′-biphenyl]-2-yl)cyclopropane-1-carbonyl]azetidin-2-yl}methyl)methanesulfonamide] was tested. Which “OX2R agonist activity (3 μM, %)” value did it give?
The value was 101%.

How did the “OX2R agonist activity (3 μM, %)” value turn out when `COCC1(C(=O)N2C[C@@H](F)[C@H]2CNS(C)(=O)=O)CC1c1ccc(F)cc1-c1c(F)cccc1F` (stereo partly drawn) [Example 436, N-({(2R,3R)-3-fluoro-1-[(1R,2S)-1-(methoxymethyl)-2-(2′,5,6′-trifluoro[1,1′-biphenyl]-2-yl)cyclopropane-1-carbonyl]azetidin-2-yl}methyl)methanesulfonamide, or N-({(2R,3R)-3-fluoro-1-[(1S,2R)-1-(methoxymethyl)-2-(2′,5,6′-trifluoro[1,1′-biphenyl]-2-yl)cyclopropane-1-carbonyl]azetidin-2-yl}methyl)methanesulfonamide] was run?
Its value is 99%.

How did the “OX2R agonist activity (3 μM, %)” value turn out when `CCS(=O)(=O)NC[C@@H]1[C@H](F)CN1C(=O)C1(COC)CC1c1ccc(F)cc1-c1c(F)cccc1F` (stereo partly drawn) [Example 437, N-({(2R,3R)-3-fluoro-1-[(1R,2S)-1-(methoxymethyl)-2-(2′,5,6′-trifluoro[1,1′-biphenyl]-2-yl)cyclopropane-1-carbonyl]azetidin-2-yl}methyl)ethanesulfonamide, or N-({(2R,3R)-3-fluoro-1-[(1S,2R)-1-(methoxymethyl)-2-(2′,5,6′-trifluoro[1,1′-biphenyl]-2-yl)cyclopropane-1-carbonyl]azetidin-2-yl}methyl)ethanesulfonamide] was run?
Its value is 99%.

Which “OX2R agonist activity (3 μM, %)” value does the source give for `CNS(=O)(=O)NC[C@@H]1[C@H](F)CN1C(=O)C1(COC)CC1c1ccc(F)cc1-c1c(F)cccc1F` (stereo partly drawn) [Example 438, N-({(2R,3R)-3-fluoro-1-[(1R,2S)-1-(methoxymethyl)-2-(2′,5,6′-trifluoro[1,1′-biphenyl]-2-yl)cyclopropane-1-carbonyl]azetidin-2-yl}methyl)-N′-methylsulfuric diamide, or N-({(2R,3R)-3-fluoro-1-[(1S,2R)-1-(methoxymethyl)-2-(2′,5,6′-trifluoro[1,1′-biphenyl]-2-yl)cyclopropane-1-carbonyl]azetidin-2-yl}methyl)-N′-methylsulfuric diamide] here?
The value was 101%.

Which “OX2R agonist activity (3 μM, %)” value does the source give for `CCS(=O)(=O)NC[C@@H]1[C@H](F)CN1C(=O)C1CC1(F)c1ccc(F)cc1-c1ccccc1Cl` (stereo partly drawn) [Example 440, N-({(2R,3R)-1-[(1R,2R)-2-(2′-chloro-5-fluoro[1,1′-biphenyl]-2-yl)-2-fluorocyclopropane-1-carbonyl]-3-fluoroazetidin-2-yl}methyl)ethanesulfonamide, or N-({(2R,3R)-1-[(1S,2S)-2-(2′-chloro-5-fluoro[1,1′-biphenyl]-2-yl)-2-fluorocyclopropane-1-carbonyl]-3-fluoroazetidin-2-yl}methyl)ethanesulfonamide] here?
Its value is 91%.

With `CCS(=O)(=O)NC[C@@H]1[C@H](F)CN1C(=O)C1CC1(F)c1ccccc1-c1ccccc1Cl` (stereo partly drawn) [Example 441, N-({(2R,3R)-1-[(1R,2R)-2-(2′-chloro[1,1′-biphenyl]-2-yl)-2-fluorocyclopropane-1-carbonyl]-3-fluoroazetidin-2-yl}methyl)ethanesulfonamide, or N-({(2R,3R)-1-[(1S,2S)-2-(2′-chloro[1,1′-biphenyl]-2-yl)-2-fluorocyclopropane-1-carbonyl]-3-fluoroazetidin-2-yl}methyl)ethanesulfonamide] as the compound, how does the “OX2R agonist activity (3 μM, %)” value read?
Its value is 90%.

For `CCS(=O)(=O)NC[C@@H]1[C@H](F)CN1C(=O)C1CC1(F)c1ccccc1-c1ccccc1F` (stereo partly drawn) [Example 442, N-({(2R,3R)-3-fluoro-1-[(1R,2R)-2-fluoro-2-(2′-fluoro[1,1′-biphenyl]-2-yl)cyclopropane-1-carbonyl]azetidin-2-yl}methyl)ethanesulfonamide, or N-({(2R,3R)-3-fluoro-1-[(1S,2S)-2-fluoro-2-(2′-fluoro[1,1′-biphenyl]-2-yl)cyclopropane-1-carbonyl]azetidin-2-yl}methyl)ethanesulfonamide], which “OX2R agonist activity (3 μM, %)” value is on record?
The value was 100%.

How did the “OX2R agonist activity (3 μM, %)” value turn out when `CNS(=O)(=O)NC[C@@H]1[C@H](F)CN1C(=O)[C@@H]1C[C@@]1(F)c1ccc(Cl)cc1-c1c(F)cccc1F` [Example 443, N-({(2R,3R)-1-[(1S,2S)-2-(5-chloro-2′,6′-difluoro[1,1′-biphenyl]-2-yl)-2-fluorocyclopropane-1-carbonyl]-3-fluoroazetidin-2-yl}methyl)-N′-methylsulfuric diamide] was run?
The value was 100%.

For `CC(C)S(=O)(=O)NC[C@@H]1[C@H](F)CN1C(=O)[C@@H]1C[C@@]1(F)c1ccc(F)cc1-c1c(F)cccc1F` [Example 444, N-({(2R,3R)-3-fluoro-1-[(1S,2S)-2-fluoro-2-(2′,5,6′-trifluoro[1,1′-biphenyl]-2-yl)cyclopropane-1-carbonyl]azetidin-2-yl}methyl)propane-2-sulfonamide], which “OX2R agonist activity (3 μM, %)” value is on record?
The value was 96%.

For `O=C([C@@H]1C[C@@]1(F)c1ccc(F)cc1-c1c(F)cccc1F)N1C[C@@H](F)[C@H]1CNS(=O)(=O)CC1CC1` [Example 445, 1-cyclopropyl-N-({(2R,3R)-3-fluoro-1-[(1S,2S)-2-fluoro-2-(2′,5,6′-trifluoro[1,1′-biphenyl]-2-yl)cyclopropane-1-carbonyl]azetidin-2-yl}methyl)methanesulfonamide], which “OX2R agonist activity (3 μM, %)” value is on record?
Its value is 76%.
